From patent US20260132132A1, “3A,4,5,6-TETRAHYDRO-1 H-PYRAZOLO[3,4-C]PYRIDIN-7(7AH)-ONE DERIVATIVES AS FACTOR XIIA INHIBITORS” (KALVISTA PHARMACEUTICALS LIMITED, priority 2022, published 2026) come the findings set out here.

Test [1] addresses T1, Human Factor XIIa (hFXIIa) (Homo sapiens, UniProt P00748).
T1 construct: purchased Enzyme Research Laboratories
T1 sequence (P00748 373-615 limits assumed): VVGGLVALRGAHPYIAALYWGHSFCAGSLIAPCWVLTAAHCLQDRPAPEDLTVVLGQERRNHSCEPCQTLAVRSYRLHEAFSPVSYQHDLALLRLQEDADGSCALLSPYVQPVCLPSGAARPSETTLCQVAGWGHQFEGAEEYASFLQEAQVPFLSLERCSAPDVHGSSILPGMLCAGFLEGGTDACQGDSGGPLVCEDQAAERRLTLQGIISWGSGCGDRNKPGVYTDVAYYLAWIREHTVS
T1 sequence (P00748 20-372 partner limits assumed): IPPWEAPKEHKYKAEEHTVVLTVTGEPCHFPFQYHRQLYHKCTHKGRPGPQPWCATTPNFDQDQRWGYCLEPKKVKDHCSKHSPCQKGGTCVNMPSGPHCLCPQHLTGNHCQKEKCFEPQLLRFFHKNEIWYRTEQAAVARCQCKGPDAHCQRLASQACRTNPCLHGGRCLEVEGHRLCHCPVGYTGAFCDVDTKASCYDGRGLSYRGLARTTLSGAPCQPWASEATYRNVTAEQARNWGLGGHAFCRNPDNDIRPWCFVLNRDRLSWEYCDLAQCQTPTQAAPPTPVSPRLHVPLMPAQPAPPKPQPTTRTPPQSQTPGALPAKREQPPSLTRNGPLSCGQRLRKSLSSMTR
The test is described as follows: Determination of Human Factor XIIa (hFXIIa) inhibition, fluorogenic substrate IC50 assay. The format is biochemical. The conditions noted are these: fluorogenic substrate H-DPro-Phe-Arg-AFC at Km, 25° C., read-out: Human FXIIa IC50. The method, then: Determination of Human Factor XIIa (hFXIIa) inhibition
The Km for the cleavage of the substrate by hFXIIa was determined by standard transformation of the Michaelis-Menten equation, with subsequent inhibition assays performed at substrate Km concentration.

The next test has as its target FXa (Homo sapiens, UniProt P00742). Kind of test: Related protease inhibition: FXa, fluorogenic substrate. The format is biochemical. The conditions noted are these: fluorogenic substrate at Km, 25° C.; H1-H3 = % activity at 40 μM. As for the experimental part:
Human serine protease enzyme Plasma Kallikrein, KLK1, FXa, Plasmin, Thrombin and Trypsin were assayed for enzymatic activity using an appropriate fluorogenic substrate at Km concentration, FXIa at fixed substrate concentration of 100 μM and various concentrations of the test compound.

Sequence of FXa (P00742 235-488 limits assumed): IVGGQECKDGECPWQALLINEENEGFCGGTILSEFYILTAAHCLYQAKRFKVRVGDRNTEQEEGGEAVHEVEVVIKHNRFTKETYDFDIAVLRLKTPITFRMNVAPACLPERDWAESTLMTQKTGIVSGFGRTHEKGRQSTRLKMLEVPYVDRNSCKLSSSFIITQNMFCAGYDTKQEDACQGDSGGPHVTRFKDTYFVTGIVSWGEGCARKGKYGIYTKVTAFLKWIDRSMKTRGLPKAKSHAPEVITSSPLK
Sequence of FXa (P00742 41-179 partner limits assumed): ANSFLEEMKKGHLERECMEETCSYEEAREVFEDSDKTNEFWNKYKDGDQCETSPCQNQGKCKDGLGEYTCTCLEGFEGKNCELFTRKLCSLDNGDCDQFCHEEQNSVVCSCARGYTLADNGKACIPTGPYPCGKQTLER

Consider `Cc1cccc(-n2nc(C(=O)NCc3cnccc3C)c3c2C(=O)N(c2ccc4c(c2)CN(CCO)CC4)CC3)c1` [Example 2008, 6-(2-(2-hydroxyethyl)-1,2,3,4-tetrahydroisoquinolin-7-yl)-N-((4-methylpyridin-3-yl)methyl)-7-oxo-1-(m-tolyl)-4,5,6,7-tetrahydro-1H-pyrazolo[3,4-c]pyridine-3-carboxamide], for which the results for the IC50 (in test [1]; against FXa) were 0.01 to 0.1 µM and 3 to 10 µM, respectively.
The corresponding values for `CN1CCc2ccc(N3CCc4c(C(=O)NCC5CC5)nn(-c5cccc(Cl)n5)c4C3=O)cc2C1=O` [Example 2020, 1-(6-Chloropyridin-2-yl)-N-(cyclopropylmethyl)-6-(2-methyl-1-oxo-1,2,3,4-tetrahydroisoquinolin-7-yl)-7-oxo-4,5,6,7-tetrahydro-1H-pyrazolo[3,4-c]pyridine-3-carboxamide] are 0.1 to 0.3 µM and above 40 µM.
On to `Cc1cc(CNC(=O)c2nn(-c3cccc(Cl)c3)c3c2CCN(c2ccc4c(c2)C(=O)N(CC(F)F)CCO4)C3=O)n[nH]1` [Example 1382, 1-(3-chlorophenyl)-6-(4-(2,2-difluoroethyl)-5-oxo-2,3,4,5-tetrahydrobenzo[f][1,4]oxazepin-7-yl)-N-((5-methyl-1H-pyrazol-3-yl)methyl)-7-oxo-4,5,6,7-tetrahydro-1H-pyrazolo[3,4-c]pyridine-3-carboxamide], for which the results for the IC50 (in test [1]; against FXa) were 0.01 to 0.1 µM and 3 to 10 µM, respectively.
The like results for `Cc1cncc(CNC(=O)c2nn(-c3cccc(Cl)c3)c3c2CCN(c2ccc4c(c2)C(=O)N(C)CC4)C3=O)c1` [Example 1201, 1-(3-chlorophenyl)-6-(2-methyl-1-oxo-1,2,3,4-tetrahydroisoquinolin-7-yl)-N-((5-methylpyridin-3-yl)methyl)-7-oxo-4,5,6,7-tetrahydro-1H-pyrazolo[3,4-c]pyridine-3-carboxamide] were, in that order, 0.1 to 0.3 µM and 10 to 40 µM.
The corresponding values for `CN(C)C(=O)c1cccc(N2CCc3c(C(=O)NCC4CC4)nn(-c4cccc(Cl)c4)c3C2=O)c1` [Example 1195, 1-(3-Chlorophenyl)-N-(cyclopropylmethyl)-6-[3-(dimethylcarbamoyl)phenyl]-7-oxo-4,5-dihydropyrazolo[3,4-c]pyridine-3-carboxamide] are 3 to 10 µM and above 40 µM.
The like results for `Cn1cc(Cl)c(CNC(=O)c2nn(-c3cccc(Cl)c3)c3c2CCN(c2ccc4c(c2)CN(CCO)CC4)C3=O)n1` [Example 1155, N-((4-chloro-1-methyl-1H-pyrazol-3-yl)methyl)-1-(3-chlorophenyl)-6-(2-(2-hydroxyethyl)-1,2,3,4-tetrahydroisoquinolin-7-yl)-7-oxo-4,5,6,7-tetrahydro-1H-pyrazolo[3,4-c]pyridine-3-carboxamide] were, in that order, 0.01 to 0.1 µM and 10 to 40 µM.
Consider `Cc1cc(CNC(=O)c2nn(-c3cccc(Cl)c3)c3c2CCN(c2ccc4c(c2)C(=O)N(C)CC(=O)N4C)C3=O)n[nH]1` [Example 1370, 1-(3-chlorophenyl)-6-(1,4-dimethyl-2,5-dioxo-2,3,4,5-tetrahydro-1H-benzo[e][1,4]diazepin-7-yl)-N-((5-methyl-1H-pyrazol-3-yl)methyl)-7-oxo-4,5,6,7-tetrahydro-1H-pyrazolo[3,4-c]pyridine-3-carboxamide], for which the IC50 in test [1] fell in the range of 0.3 to 1 µM; against FXa, 10 to 40 µM.
On to `Cc1ccncc1C(=O)NCc1nn(-c2cccc(Cl)c2)c2c(=O)n(-c3ccc4c(c3)CN(CCO)CC4)c(C)nc12` [Example 3010, N-((1-(3-chlorophenyl)-6-(2-(2-hydroxyethyl)-1,2,3,4-tetrahydroisoquinolin-7-yl)-5-methyl-7-oxo-6,7-dihydro-1H-pyrazolo[4,3-d]pyrimidin-3-yl)methyl)-4-methylnicotinamide], for which the IC50 in test [1] is 0.3 to 1 µM; at FXa, 3 to 10 µM.
The like results for `CCNC(=O)c1nn(-c2cccc(Cl)c2)c2c1CCN(c1cccc(CN3CCCCC3)c1)C2=O` [Example 1011, 1-(3-chlorophenyl)-N-ethyl-7-oxo-6-(3-(piperidin-1-ylmethyl)phenyl)-4,5,6,7-tetrahydro-1H-pyrazolo[3,4-c]pyridine-3-carboxamide] were, in that order, 3 to 10 µM and above 100 µM.
The corresponding values for `CCNC(=O)c1nn(-c2cccc(Cl)c2)c2c1CCN(c1cccc(N3C(=O)CC[C@@H]3C)c1)C2=O` [Example 1398, (S)-1-(3-chlorophenyl)-N-ethyl-6-(3-(2-methyl-5-oxopyrrolidin-1-yl)phenyl)-7-oxo-4,5,6,7-tetrahydro-1H-pyrazolo[3,4-c]pyridine-3-carboxamide] are 10 to 40 µM and above 40 µM.
The corresponding values for `O=C(NC1CCCCC1)c1nn(-c2cccc(Cl)c2)c2c1CCN(c1cccc(CN3CCCCC3)c1)C2=O` [Example 1010, 1-(3-chlorophenyl)-N-cyclohexyl-7-oxo-6-(3-(piperidin-1-ylmethyl)phenyl)-4,5,6,7-tetrahydro-1H-pyrazolo[3,4-c]pyridine-3-carboxamide] are 0.3 to 1 µM and above 100 µM.
Turning to `CN1CCc2ccc(N3CCc4c(C(=O)NC5CCOCC5)nn(-c5cccc(Cl)c5)c4C3=O)cc2C1` [Example 1043, 1-(3-chlorophenyl)-6-(2-methyl-1,2,3,4-tetrahydroisoquinolin-7-yl)-7-oxo-N-(tetrahydro-2H-pyran-4-yl)-4,5,6,7-tetrahydro-1H-pyrazolo[3,4-c]pyridine-3-carboxamide], the IC50 in test [1] lay within 0.3 to 1 µM; at FXa, 3 to 10 µM.
As for `O=C(NCC1CC1)c1nn(-c2cccc(Cl)c2)c2c1CCN(c1cccc(CN3CCCCC3)c1)C2=O` [Example 1002, 1-(3-chlorophenyl)-N-(cyclopropylmethyl)-7-oxo-6-(3-(piperidin-1-ylmethyl)phenyl)-4,5,6,7-tetrahydro-1H-pyrazolo[3,4-c]pyridine-3-carboxamide], the IC50 is 0.3 to 1 µM in test [1] and above 10 µM at FXa.
The like results for `CCNC(=O)c1nn(-c2cccc(Cl)c2)c2c1CCN(c1ccc3c(c1)C(=O)N(CC)CCO3)C2=O` [Example 1371, 1-(3-chlorophenyl)-N-ethyl-6-(4-ethyl-5-oxo-2,3,4,5-tetrahydrobenzo[f][1,4]oxazepin-7-yl)-7-oxo-4,5,6,7-tetrahydro-1H-pyrazolo[3,4-c]pyridine-3-carboxamide] were, in that order, 0.1 to 0.3 µM and 10 to 40 µM.
The like results for `CN1CCc2ccc(N3CCc4c(C(=O)NCC5(CO)COC5)nn(-c5cccc(Cl)c5)c4C3=O)cc2C1=O` [Example 1252, 1-(3-chlorophenyl)-N-((3-(hydroxymethyl)oxetan-3-yl)methyl)-6-(2-methyl-1-oxo-1,2,3,4-tetrahydroisoquinolin-7-yl)-7-oxo-4,5,6,7-tetrahydro-1H-pyrazolo[3,4-c]pyridine-3-carboxamide] were, in that order, 0.3 to 1 µM and above 40 µM.
The like results for `Cc1ccncc1CNC(=O)c1nn(-c2cccc(Cl)c2)c2c1CCN(c1ccc3c(c1)C(=O)N(CCO)CCC3)C2=O` [Example 1306, 1-(3-chlorophenyl)-6-(2-(2-hydroxyethyl)-1-oxo-2,3,4,5-tetrahydro-1H-benzo[c]azepin-8-yl)-N-((4-methylpyridin-3-yl)methyl)-7-oxo-4,5,6,7-tetrahydro-1H-pyrazolo[3,4-c]pyridine-3-carboxamide] were, in that order, 0.01 to 0.1 µM and 10 to 40 µM.
Take `Cc1cn(C)nc1CNC(=O)c1nn(-c2cccc(Cl)c2)c2c1CCN(c1ccc3c(c1)C(=O)N(CCO)CC3)C2=O` [Example 1217, 1-(3-Chlorophenyl)-N-[(1,4-dimethylpyrazol-3-yl)methyl]-6-[2-(2-hydroxyethyl)-1-oxo-3,4-dihydroisoquinolin-7-yl]-7-oxo-4,5-dihydropyrazolo[3,4-c]pyridine-3-carboxamide]: the results for the IC50 (in test [1]; against FXa) were 0.01 to 0.1 µM and 10 to 40 µM, respectively.
The corresponding values for `CN1CCc2ccc(N3CCc4c(C(=O)NC5(CO)CC5)nn(-c5cccc(Cl)c5)c4C3=O)cc2C1=O` [Example 1360, 1-(3-chlorophenyl)-N-(1-(hydroxymethyl)cyclopropyl)-6-(2-methyl-1-oxo-1,2,3,4-tetrahydroisoquinolin-7-yl)-7-oxo-4,5,6,7-tetrahydro-1H-pyrazolo[3,4-c]pyridine-3-carboxamide] are 0.3 to 1 µM and 10 to 40 µM.
The corresponding values for `Cc1ccnnc1CNC(=O)c1nn(-c2cccc(Cl)c2)c2c1CCN(c1ccc3c(c1)C(=O)N(C)CC3)C2=O` [Example 1310, 1-(3-chlorophenyl)-6-(2-methyl-1-oxo-1,2,3,4-tetrahydroisoquinolin-7-yl)-N-((4-methylpyridazin-3-yl)methyl)-7-oxo-4,5,6,7-tetrahydro-1H-pyrazolo[3,4-c]pyridine-3-carboxamide] are 0.3 to 1 µM and 10 to 40 µM.

A word on the IC50: it is the concentration that inhibits the measured activity by half.
